From patent US20100286081A1, “5-AMINO-3-(2',3'-DI-O-ACETYL-BETA-D-RIBOFURANOSYL)-3H-THIAZOLO[4,5-D] PYRIMIDIN-2-OCE SALTS AND CRYSTALLINE FORMS” (Anadys Pharmaceuticals Inc., priority 2006, published 2010)

Legend:
[1] = Water sorption curve (DVS analysis at 25° C.); type: physicochemical; details: for Weight change in %: DVS analysis at 25° C.
Excerpt: Water Sorption Curve of 5-amino-3-(2′,3′-di-O-acetyl-beta-D-ribofuranosyl)-3H-thiazolo[4,5-d]pyrimidin-2-one Amorphous Base (FIG. 6)
Water Sorption Curve of 5-amino-3-(2′,3′-di-O-acetyl-beta-D-ribofuranosyl)-3H-thiazolo[4,5-d]pyrimidin-2-one Maleate Salt (FIG. 7)

[2] = Stability of polymorphic form; type: physicochemical

Hygroscopicity (in words) [1]	Weight change in % ([1]; 0-20% r.h.) [%]	Weight change in % ([1]; 0-40% r.h.) [%]	Weight change in % ([1]; 0-60% r.h.) [%]	Weight change in % ([1]; 0-80% r.h.) [%]	Weight change in % ([1]; 0-95% r.h.) [%]	Stability of polymorphic form (in words) [2]	SMILES
hygroscopic	0.50	0.86	1.55	3.07	4.68	–	CC(=O)O[C@@H]1[C@H](OC(C)=O)[C@@H](CO)O[C@H]1n1c(=O)sc2cnc(N)nc21 [5-Amino-3-(2′,3′-di-O-acetyl-beta-D-ribofuranosyl)-3H-thiazolo[4,5-d]pyrimidin-2-one]
–	0.08	0.17	0.23	0.32	0.31	–	CC(=O)O[C@@H]1[C@H](OC(C)=O)[C@@H](CO)O[C@H]1n1c(=O)sc2cnc(N)nc21.O=C(O)/C=C\C(=O)O [5-amino-3-(2′,3′-di-O-acetyl-beta-D-ribofuranosyl)-3H-thiazolo[4,5-d]pyrimidin-2-one maleate]
–	–	–	–	–	–	particularly stable polymorphic form	CC(=O)O[C@@H]1[C@H](OC(C)=O)[C@@H](CO)O[C@H]1n1c(=O)sc2cnc(N)nc21.O=C(O)/C=C\C(=O)O [Form B, 5-Amino-3-(2′,3′-di-O-acetyl-beta-D-ribofuranosyl)-3H-thiazolo[4,5-d]pyrimidin-2-one maleate]
